Values of other authors, collected in patent US12691080B2, “Fenretinide formulations, systems incorporating same, and methods for their use” (ARx, LLC, priority 2024, dated 2026).
Values after ≈ are worked out from the molar mass of the structure shown.

Experiments:
[1] = tested on: oral epithelium
[2] = pH 6.5

solubility in water [2]: 13 nmol/L (≈ 5.09 ng/mL)
Compound: CC1=C(/C=C/C(C)=C/C=C/C(C)=C/C(=O)Nc2ccc(O)cc2)C(C)(C)CCC1 [fenretinide, N-(4-hydroxyphenyl)retinamide]
epithelial proliferation (Ki-67 indices) ([1]; epithelium with higher fenretinide levels (>5 μM)): significantly reduced
transglutaminase 1 levels ([1]; fenretinide levels lower than 5 μM): increased levels
Phase II enzyme UGT1A1 ([1]; lower fenretinide levels): increase
systemically detectable drug ([1]; oral mucosal patch delivery): absence of any systemically detectable drug
